From the supplement of paper PMC10331698
± gives the standard deviation of the averaged measurements.

What was measured:
Test in all cases: level (log10 ratio to DMSO vehicle control); higher = higher biomarker level / cell amount than vehicle control
[1] = compound: O=S(=O)(O)CCC(F)(F)C(F)(F)C(F)(F)C(F)(F)F [4:2 Fluorotelomer sulfonic acid]; conditions: in DMSO
Description: (§1)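 BioMAP Diversity Plus panel of 12 human primary cell co-culture systems (3C, 4H, LPS, SAg, BT, BF4T, BE3C, CASM3C, HDF3CGF, KF3CT, MyoF, Mphg). Compounds were added 1 h before stimulation and left for 24 h (MyoF 48 h; BT 72 h for soluble read-outs or 6 d for IgG). Biomarkers were read by ELISA, cytotoxicity by SRB, PBMC viability and proliferation by Alamar Blue. Each well value was divided by the mean of 8 DMSO control wells on the same plate and log10 transformed; duplicate blinded samples were tested at 4 concentrations.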

[2] = compound: C=CC(=O)OCC(F)(F)C(F)(F)C(F)(F)C(F)(F)COC(=O)C=C [1H,1H,6H,6H-Perfluorohexane-1,6-diol diacrylate]; conditions: 6700 nM; in DMSO
Description: as §1

[3] = compound: C=CC(=O)OCCC(F)(F)C(F)(F)C(F)(F)C(F)(F)C(F)(F)C(F)(F)C(F)(F)C(F)(F)F [8:2 Fluorotelomer acrylate]; conditions: in DMSO
Description: as §1

[4] = compound: OCCCCC(F)(F)C(F)(F)C(F)(F)C(F)(F)F [4:4 Fluorotelomer alcohol]; conditions: in DMSO
Description: as §1

[5] = compound: OCC(F)(F)C(F)(F)C(F)(F)C(F)(F)C(F)(F)C(F)(F)F [6:1 Fluorotelomer alcohol]; conditions: in DMSO
Description: as §1

[6] = compound: Cc1ccc(S(=O)(=O)OCC(F)(F)C(F)(F)C(F)(F)C(F)(F)C(F)(F)C(F)F)cc1 [1H,1H,7H-Perfluoroheptyl 4-methylbenzenesulfonate]; conditions: in DMSO
Description: as §1

[7] = compound: O=C(O)C(F)(F)C(F)(F)C(F)(F)C(F)(F)C(F)(F)C(F)(F)C(F)(F)F [Ammonium perfluorooctanoate]; conditions: in DMSO
Description: as §1

Row | Test System | level (log10) ([1]; 6700 nM) | level (log10) ([1]; 20000 nM) | level (log10) ([1]; 60000 nM) | level (log10) [2] | level (log10) ([3]; 6700 nM) | level (log10) ([3]; 20000 nM) | level (log10) ([3]; 60000 nM) | level (log10) ([4]; 6700 nM) | level (log10) ([4]; 20000 nM) | level (log10) ([4]; 60000 nM) | level (log10) ([5]; 6700 nM) | level (log10) ([5]; 20000 nM) | level (log10) ([5]; 60000 nM) | level (log10) ([6]; 6700 nM) | level (log10) ([6]; 20000 nM) | level (log10) ([6]; 60000 nM) | level (log10) ([7]; 6700 nM) | level (log10) ([7]; 20000 nM) | level (log10) ([7]; 60000 nM)
1 | CASM3C:SRB | -0.0045 ± 0.0064 | -0.013 ± 0.0028 | -0.001 ± 0.0028 | 0 ± 0.0014 | -0.002 | 0.005 ± 0.0099 | 0.0085 ± 0.0064 | -0.0045 ± 0.00071 | 0.0015 ± 0.012 | -0.0025 ± 0.016 | 0.008 | 0.003 ± 0.0057 | -0.04 ± 0.0042 | 0.002 ± 0.0014 | -0.0055 ± 0.0078 | -0.0125 ± 0.0035 | -0.0015 ± 0.00071 | -0.001 ± 0.0099 | -0.0005 ± 0.00071
2 | CASM3C:Serum Amyloid A | -0.008 ± 0.017 | -0.0055 ± 0.0021 | -0.015 ± 0.041 | -0.0575 ± 0.0078 | -0.0075 ± 0.013 | -0.0125 ± 0.022 | 0.018 ± 0.028 | -0.0055 ± 0.025 | -0.01 ± 0.047 | 0.0295 ± 0.063 | -0.001 ± 0.013 | 0.01 ± 0.017 | -0.052 ± 0.018 | -0.0445 ± 0.021 | -0.0515 ± 0.0078 | 0.0015 ± 0.06 | 0.0345 ± 0.022 | 0.015 ± 0.0057 | 0.0345 ± 0.012
3 | HDF3CGF:CCL2/MCP-1 | -0.008 ± 0.0071 | -0.009 ± 0.017 | 0.0105 ± 0.028 | -0.437 ± 0.0028 | -0.03 ± 0.017 | -0.042 ± 0.031 | -0.0805 ± 0.044 | 0.004 ± 0.0014 | 0.008 ± 0.0099 | 0.007 ± 0.016 | -0.014 ± 0.028 | -0.013 ± 0.057 | -0.044 ± 0.082 | -0.0645 ± 0.026 | -0.108 ± 0.013 | -0.091 ± 0.0042 | -0.0285 ± 0.0092 | -0.0605 ± 0.0078 | -0.068 ± 0.014
4 | HDF3CGF:CD54/ICAM-1 | -0.013 ± 0.016 | -0.01 ± 0.017 | -0.0175 ± 0.013 | -0.175 ± 0.038 | 0.034 ± 0.04 | 0.044 ± 0.059 | 0.0395 ± 0.088 | -0.0135 ± 0.0064 | -0.003 ± 0.011 | -0.0125 ± 0.013 | -0.0075 ± 0.011 | 0.008 ± 0.02 | 0.0075 ± 0.011 | 0.0005 ± 0.016 | 0.0385 ± 0.042 | 0.026 ± 0.055 | -0.0145 ± 0.015 | -0.043 ± 0.0057 | -0.054 ± 0.016
